Data on 4 molecules can be found in patent US8231891B2, “Implantable drug depot for weight control” (Warsaw Orthopedic, Inc., priority 2009, dated 2012).

The conditions of assay [1]: long term use of the drug; cited from earlier work.
Assay [2] is described as follows: Weight gain of rats receiving fluocinolone by daily subcutaneous injection. The format is in vivo, Wistar rats. To be noted: FIG. 39; systemic subcutaneous injection, 25 ug/kg daily for 22 days. As for the experimental part: Forty Wistar rats were utilized in this study. The forty rats were divided into 4 groups. Group 1 rats (10 in total) each received fluocinolone acetonide via systemic subcutaneous injection at a dosage of 0.5 ug/kg daily. Group 2 rats (10 in total) each received fluocinolone acetonide via systemic subcutaneous injection at a dosage of 5 ug/kg daily. Group 3 rats (10 in total) each received fluocinolone acetonide via systemic subcutaneous injection at a dosage of 25 ug/kg daily. Group 4 rats (10 in total) were the control in this study and received saline injections.

With `CCCCCCCCCCC[C@@H](C[C@@H]1OC(=O)[C@H]1CCCCCC)OC(=O)[C@H](CC(C)C)NC=O` [Orlistat], in assay [1], the average weight loss is 6.4 lbs.
`Cc1c(C(=O)NN2CCCCC2)nn(-c2ccc(Cl)cc2Cl)c1-c1ccc(Cl)cc1` [Rimonabant]: the average weight loss in assay [1] is 10.4 lbs.
With `CC(C)CC(N(C)C)C1(c2ccc(Cl)cc2)CCC1` (stereo not shown) [Sibutramine], the average weight loss in assay [1] is 9.3 lbs.
Turning to `CC1(C)O[C@@H]2C[C@H]3[C@@H]4C[C@H](F)C5=CC(=O)C=C[C@]5(C)[C@@]4(F)[C@@H](O)C[C@]3(C)[C@]2(C(=O)CO)O1` [fluocinolone acetonide, 6α-,9α-Difluoro-16 α-hydroxyprednisolone 16,17-acetonide], in assay [2], the “body weight increase compared to control rats (saline)” value is recorded as “did not exhibit as much body weight increase as control rats”.
